The test system of assay [1] is C57BL/6 mice. In words: DSS (sodium dextran sulfate) model for intestinal inflammation: colon length, weight, DAI, appearance, colonic architecture. It counts as in vivo. The note with it: for Conservation of colon length (shortening of the colon): 1% DSS for 8 days, diet supplemented with 2.3 mg/day/kg (HED 10 mg); for DAI (Disease Activity Index): 8 days with DSS and 6 days recovery; for DAI (Disease Activity Index) / General appearance of the mice / Weight change / Attenuation of damage in colonic mucosa (colonic architecture): HED 10 mg; for Rectal hemorrhage / General appearance of the mice: after 1% DSS for 8 days; for Weight change: after administration of DSS (day 21); for Attenuation of damage in colonic mucosa (colonic architecture): hematoxylin-eosin, during treatment with DSS. As to the method:
(§1) A model for intestinal inflammation based on the administration of DSS (sodium dextran sulfate) to C57BL/6 mice was used. At the present time there is no consensus about which overall is the best model for experimental colitis. The DSS model has been widely used because it has clinical, morphological and analytical characteristics which up to a point are similar to those specific to patients with ulcerative colitis or Crohn's disease.
The in vivo inflammation test was carried out using duplicates separated by a number of months. In each test each group of animals (n=8) was fed a standard diet supplemented with 2.3 mg/day/kg (animal weight) of each of the compounds, depending upon the group. This dose assumes the ingestion of 0.05 mg/day (50 μg/day) per mouse (having a mean weight of 22 grams). This dose extrapolated to a human being is equivalent to 10 mg in an adult weighing 70 kg; using the formula HED (human equivalent dose)=animal dose in mg/kg×(animal weight kg/human weight in kg)^0.33.
In each test the mice were fed for 3 weeks during which 1% DSS was included in their drink. The DSS was maintained for 8 days (and the same food as from the start). Then the DSS was withdrawn and the animals were allowed to recover for another 6 days (again with the same food).
Groups included in the investigation: control (standard food), control-DSS, DSS-resveratrol (RES), DSS-piceid (PIC), DSS-resveratrol-diglucoside (DIGLUC), DSS-piceid-butyrate (BUT), DSS-piceid-octanoate (OCT).
• Monitoring of weight, food and drink ingestion. The mice in all groups were individually monitored, with weight, quantity of food ingested and water drunk each day being monitored throughout the experimental test. • Blood and water in feces. The water content of feces, as an indication of diarrhea, was evaluated using the difference in weight following evaporation in a stove. Blood was measured using reactive strips based on the guaiacol-peroxidase reaction (HealthCare Diagnosis Inc.). The samples were diluted 1:50 in saline solution and applied to the reactive strips. After 60 sec the color was compared with the template provided by the manufacturer. The reaction was measured using a scale from 0 (negative result) to 4 (most intense color change). • Length of colon. After sacrifice the colon was obtained from each mouse, extended and measured. Samples of the colonic mucosa for various tests mentioned below were obtained by scraping. • Myeloperoxidase activity in colonic mucosa. This was evaluated by spectrophotometry at 460 nm using O-dianisidine reagent and hydrogen peroxide. The change in absorbance at 460 nm was monitored over 10 minutes in a V-630 spectrophotometer (Jasco, Tokyo, Japan). MPO activity was expressed as mU of activity/mg of fresh tissue, comparing the increase in absorbance with a standard straight line obtained using leukocyte myeloperoxidase (Sigma). • Prostaglandins in colonic mucosa. Levels of PGE2 were measured in colonic mucosa homogenates using an immunoenzyme method using a Cayman Chem. kit (USA). • “Antibody array”. The “antibody array” kit from RayBiotech (“RayBio Mouse Inflammation Antibody Array 1”) was used to determine cytokines in colonic tissue samples. The “RayBio Mouse inflammation antibody arrays” are a fast and accurate system for determining the expression profile of multiple cytokines (in this case 40) in a very sensitive way. The sensitivity is 100 times greater than that of the ELISA method. The measurement was made in duplicate following the manufacturer's instructions. Membranes were blocked with blocking buffer and then incubated with 300 μg of protein for 2 hours. Finally the membranes were incubated with a cocktail of antibodies conjugated with biotin and then radish peroxidase marked with streptavidin. The signal was detected by chemoluminescence. Images were captured using a CCD camera fitted to a Biorad Chemidoc XRS imaging station. Signal intensities (densitometry) were analyzed using ScanAlyze software. […]

Assay [2] concerns TNFR1 (Tumor necrosis factor receptor, CD120a). In words: Antibody array in colonic mucosa: TNFR1 (DSS model). It counts as in vivo, mice. To be noted: after 8 days DSS, without recovery period; HED 10 mg. As for the experimental part:
as §1
(§2) The in vivo inflammation test was carried out using duplicates separated by a number of months. In each test each group of animals (n=8) was fed a standard diet supplemented with 2.3 mg/day/kg (animal weight) of each of the compounds, depending upon the group. […]
(§3) • Monitoring of weight, food and drink ingestion. The mice in all groups were individually monitored, with weight, quantity of food ingested and water drunk each day being monitored throughout the experimental test. • Blood and water in feces. The water content of feces, as an indication of diarrhea, was evaluated using the difference in weight following evaporation in a stove. Blood was measured using reactive strips based on the guaiacol-peroxidase reaction (HealthCare Diagnosis Inc.). […] The reaction was measured using a scale from 0 (negative result) to 4 (most intense color change). • Length of colon. After sacrifice the colon was obtained from each mouse, extended and measured. […]

Assay [3] has as its system Prostaglandin E2. The experiment in a line: Prostaglandins in colonic mucosa (DSS model). To be noted: after DSS; HED 10 mg. The assay is classed as in vivo, mice. As for the experimental part:
as §1, §2, §3

The test system of assay [4] is enterobacteria. The experiment in a line: Microbiota counts in feces: enterobacteria. The assay is classed as in vivo, mice. To be noted: after administration of DSS; HED 10 mg. As to the method: as §1
The in vivo inflammation test was carried out using duplicates separated by a number of months. In each test each group of animals (n=8) was fed a standard diet supplemented with 2.3 mg/day/kg (animal weight) of each of the compounds, depending upon the group. This dose assumes the ingestion of 0.05 mg/day (50 μg/day) per mouse (having a mean weight of 22 grams). This dose extrapolated to a human being is equivalent to 10 mg in an adult weighing 70 kg; using the formula HED (human equivalent dose)=animal dose in mg/kg×(animal weight kg/human weight in kg)^0.33. […]
• Monitoring of weight, food and drink ingestion. The mice in all groups were individually monitored, with weight, quantity of food ingested and water drunk each day being monitored throughout the experimental test. • Blood and water in feces. The water content of feces, as an indication of diarrhea, was evaluated using the difference in weight following evaporation in a stove. Blood was measured using reactive strips based on the guaiacol-peroxidase reaction (HealthCare Diagnosis Inc.). […] The reaction was measured using a scale from 0 (negative result) to 4 (most intense color change). • Length of colon. After sacrifice the colon was obtained from each mouse, extended and measured. […] This was evaluated by spectrophotometry at 460 nm using O-dianisidine reagent and hydrogen peroxide. The change in absorbance at 460 nm was monitored over 10 minutes in a V-630 spectrophotometer (Jasco, Tokyo, Japan). […] Levels of PGE2 were measured in colonic mucosa homogenates using an immunoenzyme method using a Cayman Chem. kit (USA). • “Antibody array”. […] The signal was detected by chemoluminescence. […]

Entries after “also recorded” stand apart in the source; their conditions may differ.

Regarding `CCCCCCCC(=O)OCC1OC(Oc2cc(O)cc(/C=C/c3ccc(O)cc3)c2)C(O)C(O)C1O` [OCT, trans-resveratrol-3-O-(6′-O-octanoyl)-β-D-glucopyranoside], in assay [1], the “Conservation of colon length (shortening of the colon)” value is given as “least shortening of the colon”, the “DAI (Disease Activity Index)” value is reported as “much less than in the remainder”, the Rectal hemorrhage entry is given as “no trace of rectal hemorrhage” and the “General appearance of the mice” value is “OCT (D)≈BUT (C)>>RES≈DIGLUC≈PIC (B)>>control-DSS (A); also recorded: better appearance than the control-DSS”. In addition, in assay [1], the Weight change entry is reported as “maintained the same weight as the control group” and the “Attenuation of damage in colonic mucosa (colonic architecture)” value is recorded as “best preserved colonic architecture”. The “Level of TNFR1 in colonic mucosa” value in assay [2] was “values are similar to those for the control mice”. For the same compound, the “Production of prostaglandins (PGE2) in colonic mucosa” value in assay [3] was “best results”. Besides, the “Enterobacteria count in feces” value in assay [4] was “clear reduction”.
For the compound `CCCC(=O)OCC1OC(Oc2cc(O)cc(/C=C/c3ccc(O)cc3)c2)C(O)C(O)C1O` [BUT, trans-resveratrol-3-O-(6′-O-butanoyl)-β-D-glucopyranoside], in assay [1], the “Conservation of colon length (shortening of the colon)” value is recorded as “least shortening of the colon”, the “DAI (Disease Activity Index)” value is on record as “much less than in the remainder”, the Rectal hemorrhage entry is “no trace of rectal hemorrhage” and the “General appearance of the mice” value is recorded as “OCT (D)≈BUT (C)>>RES≈DIGLUC≈PIC (B)>>control-DSS (A); also recorded: better appearance than the control-DSS”. Also, in assay [1], the Weight change result was “maintained the same weight as the control group” and the “Attenuation of damage in colonic mucosa (colonic architecture)” value is “best preserved colonic architecture”. Moreover, the “Level of TNFR1 in colonic mucosa” value in assay [2] is recorded as “values are similar to those for the control mice”. Besides, the “Production of prostaglandins (PGE2) in colonic mucosa” value in assay [3] is “best results”. For the same compound, the “Enterobacteria count in feces” value in assay [4] was “clear reduction”.

The values above are taken from patent US20120309699A1, “COMPOUNDS HAVING ANTI-INFLAMMATORY ACTIVITY” (Consejo Superior de Investigaciones Cientificas (CSIC), priority 2009, published 2012).
